Positions of bridges follow the written chain, without caps; N, C: chain ends. Non-standard residues stand in square brackets, D forms with d. Residues, ends and D or L forms follow the SMILES beside them. ξ: configuration not given here. *: point of attachment. Bip(2'-Me) = Cc1ccccc1-c1ccc(C[C@H](N)C(=O)O)cc1; Phe(4-COOH) = N[C@@H](Cc1ccc(C(=O)O)cc1)C(=O)O; Bip = N[C@@H](Cc1ccc(-c2ccccc2)cc1)C(=O)O; Phe(3-Me) = Cc1cccc(C[C@H](N)C(=O)O)c1; NMeF = CN[C@@H](Cc1ccccc1)C(=O)O; 3Pal = N[C@@H](Cc1cccnc1)C(=O)O; Cha = N[C@@H](CC1CCCCC1)C(=O)O; Phg = N[C@H](C(=O)O)c1ccccc1; Tle = CC(C)(C)[C@H](N)C(=O)O; ξR = N=C(N)NCCCC(N)C(=O)O; Carboxymethyl = O=C(O)C*; NMeA = CN[C@@H](C)C(=O)O; Orn = NCCC[C@H](N)C(=O)O; Dab = NCC[C@H](N)C(=O)O; Dap = NC[C@H](N)C(=O)O; Ac3c = NC1(C(=O)O)CC1; ξS = NC(CO)C(=O)O; Sar = CNCC(=O)O
Target: T1, human PD-1 (Jurkat-PD-1 cells) / PE-labeled human PD-L1-Ig (Homo sapiens, UniProt Q15116)
T1 construct: expressed in transfected cells; host or cells: Jurkat cell line over-expressing human PD-1
T1 sequence (Q15116 25-288): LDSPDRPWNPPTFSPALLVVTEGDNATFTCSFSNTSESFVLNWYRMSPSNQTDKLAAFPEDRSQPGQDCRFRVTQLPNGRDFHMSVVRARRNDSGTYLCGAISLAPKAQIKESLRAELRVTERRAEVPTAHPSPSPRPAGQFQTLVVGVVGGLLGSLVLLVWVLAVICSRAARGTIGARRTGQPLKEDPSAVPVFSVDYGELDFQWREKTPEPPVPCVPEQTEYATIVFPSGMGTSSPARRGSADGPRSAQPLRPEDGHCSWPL
Assay: Jurkat-PD-1 Cell Binding High-Content Screening Assay (CBA); Jurkat hPD1-PDL1 assay
Settings: Jurkat cell line over-expressing human PD-1; PE-labeled PD-L1-Ig 20 nM final; compound incubated 2 hours at 37° C.; read-out: Jurkat HPD1-PDL1 IC50
Outline: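 Cell binding by imaging: Jurkat line stably over-expressing human PD-1, compound pre-exposure 2 h at 37° C, PE-conjugated PD-L1-Ig 20 nM final, medium DMEM containing 10% FCS.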

SMILES	IC50 [nM]
Cc1cccc(C[C@@H]2NC(=O)[C@H](CC(=O)O)NC(=O)[C@H](Cc3ccc(C(=O)O)cc3)NC(=O)[C@H](Cc3ccc(OCC(=O)O)cc3)NC(=O)CSC[C@@H](C(=O)N[C@@H](C)C(N)=O)NC(=O)[C@H](CO)NC(=O)[C@H](C(C)C)NC(=O)[C@H](CC(C)C)NC(=O)[C@H](CC(N)=O)NC(=O)[C@H]3CCCN3C(=O)[C@H](C)N(C)C(=O)[C@H](C(C)C)NC(=O)[C@H](Cc3ccc(-c4ccccc4)cc3)NC(=O)[C@H](CC(C)C)NC2=O)c1 [Example 1436] ({CH2CO}-Y(Carboxymethyl)[Phe(4-COOH)]D[Phe(3-Me)]L[Bip]V[NMeA][dP]NLVSCA-NH2; thioether N-14)	40
CC(C)C[C@@H]1NC(=O)[C@H](CCCNC(=N)N)NC(=O)[C@H](Cc2ccccc2)N(C)C(=O)[C@H](C)N(C)C(=O)[C@H](CCCNC(=N)N)NC(=O)[C@H](Cc2ccc(-c3ccccc3)cc2)NC(=O)[C@H](c2ccccc2)NC(=O)[C@H](Cc2c[nH]c3ccccc23)NC(=O)[C@H](CC(=O)O)NC(=O)[C@H](Cc2ccc(O)cc2)NC(=O)[C@H](Cc2ccccc2)NC(=O)CSC[C@@H](C(=O)NCC(N)=O)NC(=O)[C@H](CO)NC(=O)[C@H](C(C)C)NC1=O [Example 1334] ({CH2CO}-FYDW[Phg][Bip]R[NMeA][NMeF]RLVSCG-NH2; thioether N-14)	430
CC(C)C[C@@H]1NC(=O)[C@H](Cc2c[nH]c3ccccc23)NC(=O)[C@H](CC(=O)O)NC(=O)[C@H](Cc2ccc(O)cc2)NC(=O)[C@H](CC2CCCCC2)NC(=O)CSC[C@@H](C(=O)NCC(N)=O)NC(=O)[C@H](CO)NC(=O)[C@H](C(C)C)NC(=O)[C@H](CC(C)C)NC(=O)[C@H](CC(N)=O)NC(=O)CN(C)C(=O)[C@H](C)N(C)C(=O)[C@H](C(C)C)NC(=O)[C@H](Cc2ccc(-c3ccccc3)cc2)NC1=O [Example 1117] ({CH2CO}-[Cha]YDWL[Bip]V[NMeA][Sar]NLVSCG-NH2; thioether N-14)	410
CC(C)C[C@@H]1NC(=O)[C@H](Cc2c[nH]c3ccccc23)NC(=O)[C@H](CC(=O)O)NC(=O)[C@H](Cc2ccc(O)cc2)NC(=O)[C@H](Cc2ccccc2)NC(=O)CSC[C@@H](C(=O)NCC(N)=O)NC(=O)[C@H]([C@@H](C)O)NC(=O)[C@H](C(C)C)NC(=O)[C@H](CC(C)C)NC(=O)[C@H](CCN)NC(=O)[C@H]2CCCN2C(=O)[C@H](CCCN)NC(=O)[C@H](C(C)C)NC(=O)[C@H](Cc2ccc(-c3ccccc3)cc2)NC1=O [Example 1420] ({CH2CO}-FYDWL[Bip]V[Orn][dP][Dab]LVTCG-NH2; thioether N-14)	130
CC(C)C[C@@H]1NC(=O)[C@H](CCCNC(=N)N)NC(=O)[C@H](Cc2ccccc2)N(C)C(=O)[C@H](C)N(C)C(=O)[C@H](CCCNC(=N)N)NC(=O)[C@H](Cc2ccc(-c3ccccc3)cc2)NC(=O)[C@H](C(C)C)NC(=O)[C@H](Cc2c[nH]c3ccccc23)NC(=O)[C@H](CC(=O)O)NC(=O)[C@H](Cc2ccc(O)cc2)NC(=O)[C@H](Cc2ccccc2)NC(=O)CSC[C@@H](C(=O)NCC(N)=O)NC(=O)[C@H](CO)NC(=O)[C@H](C(C)(C)C)NC1=O [Example 1143] ({CH2CO}-FYDWV[Bip]R[NMeA][NMeF]RL[Tle]SCG-NH2; thioether N-14)	620
Cc1ccccc1-c1ccc(C[C@@H]2NC(=O)[C@H](CC(C)C)NC(=O)[C@H](Cc3c[nH]c4ccccc34)NC(=O)[C@H](CC(=O)O)NC(=O)[C@H](Cc3ccc(O)cc3)NC(=O)[C@H](Cc3ccccc3)NC(=O)CSC[C@@H](C(=O)N[C@@H](C)C(N)=O)NC(=O)[C@H](CO)NC(=O)[C@H](C(C)C)NC(=O)[C@H](CC(C)C)NC(=O)[C@H](CC(N)=O)NC(=O)CN(C)C(=O)[C@H](C)N(C)C(=O)[C@H](C(C)C)NC2=O)cc1 [Example 1125] ({CH2CO}-FYDWL[Bip(2'-Me)]V[NMeA][Sar]NLVSCA-NH2; thioether N-14)	470
CC(C)C[C@@H]1NC(=O)[C@H](Cc2c[nH]c3ccccc23)NC(=O)[C@H](CC(=O)O)NC(=O)[C@H](Cc2ccc(O)cc2)NC(=O)[C@H](Cc2cccnc2)NC(=O)CSC[C@@H](C(=O)NCC(N)=O)NC(=O)[C@H](CO)NC(=O)[C@H](C(C)C)NC(=O)[C@H](CC(C)C)NC(=O)[C@H](CC(N)=O)NC(=O)CN(C)C(=O)[C@H](C)N(C)C(=O)[C@H](C(C)C)NC(=O)[C@H](Cc2ccc(-c3ccccc3)cc2)NC1=O [Example 1118] ({CH2CO}-[3Pal]YDWL[Bip]V[NMeA][Sar]NLVSCG-NH2; thioether N-14)	420
CC(C)C[C@@H]1NC(=O)[C@H](Cc2c[nH]c3ccccc23)NC(=O)[C@H](CC(=O)O)NC(=O)[C@H](Cc2ccc(O)cc2)NC(=O)[C@H](Cc2ccccc2)NC(=O)CSC[C@@H](C(=O)NCC(N)=O)NC(=O)C(CO)NC(=O)[C@H](C(C)C)NC(=O)[C@H](CC(C)C)NC(=O)[C@H](CC(N)=O)NC(=O)[C@H]2CCCN2C(=O)[C@H](CCCN)NC(=O)[C@H](C(C)C)NC(=O)[C@H](Cc2ccc(-c3ccccc3)cc2)NC1=O (stereo partly shown) [Example 1419] ({CH2CO}-FYDWL[Bip]V[Orn][dP]NLV[ξS]CG-NH2; thioether N-14)	120
CC(C)C[C@@H]1NC(=O)[C@H](CCCNC(=N)N)NC(=O)[C@H](Cc2ccccc2)N(C)C(=O)[C@H](CCCCN)NC(=O)[C@H](CCCNC(=N)N)NC(=O)[C@H](Cc2ccc(-c3ccccc3)cc2)NC(=O)[C@H](C(C)C)NC(=O)[C@H](Cc2c[nH]c3ccccc23)NC(=O)[C@H](CC(=O)O)NC(=O)[C@H](Cc2ccc(O)cc2)NC(=O)[C@H](CC(N)=O)NC(=O)CSC[C@@H](C(=O)N[C@@H](C)C(N)=O)NC(=O)[C@H]([C@@H](C)O)NC(=O)[C@H](C(C)C)NC1=O [Example 1365] ({CH2CO}-NYDWV[Bip]RK[NMeF]RLVTCA-NH2; thioether N-14)	760
CC(C)C[C@@H]1NC(=O)C(CCCNC(=N)N)NC(=O)[C@H](Cc2ccccc2)N(C)C(=O)[C@H](C)N(C)C(=O)[C@H](CCCNC(=N)N)NC(=O)[C@H](Cc2ccc(-c3ccccc3)cc2)NC(=O)[C@H](C(C)C)NC(=O)[C@H](Cc2c[nH]c3ccccc23)NC(=O)[C@H](CC(=O)O)NC(=O)[C@H](Cc2ccc(O)cc2)NC(=O)[C@H](Cc2ccccc2)NC(=O)CSC[C@@H](C(=O)NCC(N)=O)NC(=O)[C@H](CCC(=O)O)NC(=O)[C@H](C(C)C)NC1=O (stereo partly shown) [Example 1219] ({CH2CO}-FYDWV[Bip]R[NMeA][NMeF][ξR]LVECG-NH2; thioether N-14)	610
CC(C)C[C@@H]1NC(=O)[C@H](Cc2c[nH]c3ccccc23)NC(=O)[C@H](CC(=O)O)NC(=O)[C@H](Cc2ccc(O)cc2)NC(=O)[C@H](Cc2ccccc2)NC(=O)CSC[C@@H](C(=O)N[C@H](C)C(N)=O)NC(=O)[C@H](CO)NC(=O)[C@H](C(C)C)NC(=O)[C@H](CC(C)C)NC(=O)[C@H](CC(N)=O)NC(=O)CN(C)C(=O)[C@H](C)N(C)C(=O)[C@H](C(C)C)NC(=O)[C@H](Cc2ccc(-c3ccccc3)cc2)NC1=O [Example 1151] ({CH2CO}-FYDWL[Bip]V[NMeA][Sar]NLVSC[dA]-NH2; thioether N-14)	700
CC(C)C[C@@H]1NC(=O)[C@H](Cc2c[nH]c3ccccc23)NC(=O)[C@H](CC(=O)O)NC(=O)[C@H](Cc2ccc(O)cc2)NC(=O)[C@H](Cc2ccccc2)NC(=O)CSC[C@@H](C(=O)N[C@@H](C)C(N)=O)NC(=O)[C@H]([C@@H](C)O)NC(=O)[C@H](C(C)C)NC(=O)[C@H](CC(C)C)NC(=O)[C@H](CCN)NC(=O)[C@H]2CCCN2C(=O)[C@H](CN)NC(=O)[C@H](C(C)C)NC(=O)[C@H](Cc2ccc(-c3ccccc3)cc2)NC1=O [Example 1409] ({CH2CO}-FYDWL[Bip]V[Dap][dP][Dab]LVTCA-NH2; thioether N-14)	280
CC(C)C[C@@H]1NC(=O)[C@H](Cc2c[nH]c3ccccc23)NC(=O)[C@H](CC(=O)O)NC(=O)[C@H](Cc2ccc(O)cc2)NC(=O)[C@H](Cc2ccccc2)NC(=O)CSC[C@@H](C(=O)NCC(N)=O)NC(=O)[C@H](CO)NC(=O)[C@H](C(C)C)NC(=O)[C@H](CC(C)C)NC(=O)[C@H](CC(N)=O)NC(=O)[C@H](C)N(C)C(=O)[C@H](C)N(C)C(=O)[C@H](C(C)C)NC(=O)[C@H](Cc2ccc(-c3ccccc3)cc2)NC1=O [Example 1120] ({CH2CO}-FYDWL[Bip]V[NMeA][NMeA]NLVSCG-NH2; thioether N-14)	430
CC(C)C[C@@H]1NC(=O)[C@H](Cc2c[nH]c3ccccc23)NC(=O)[C@H](CC(=O)O)NC(=O)[C@H](Cc2ccc(O)cc2)NC(=O)[C@H](Cc2ccccc2)NC(=O)CSC[C@@H](C(=O)NCC(N)=O)NC(=O)[C@H](CO)NC(=O)[C@H](C(C)C)NC(=O)[C@H](CC(C)C)NC(=O)[C@H](CO)NC(=O)CN(C)C(=O)[C@H](C)N(C)C(=O)[C@H](C(C)C)NC(=O)[C@H](Cc2ccc(-c3ccccc3)cc2)NC1=O [Example 1225] ({CH2CO}-FYDWL[Bip]V[NMeA][Sar]SLVSCG-NH2; thioether N-14)	960
CC(C)C[C@@H]1NC(=O)[C@H](C)NC(=O)CN(C)C(=O)[C@H](C)N(C)C(=O)[C@H](C(C)C)NC(=O)[C@H](Cc2ccc(-c3ccccc3)cc2)NC(=O)[C@H](CC(C)C)NC(=O)[C@H](Cc2c[nH]c3ccccc23)NC(=O)[C@H](CC(=O)O)NC(=O)[C@H](Cc2ccc(O)cc2)NC(=O)[C@H](Cc2ccccc2)NC(=O)CSC[C@@H](C(=O)NCC(N)=O)NC(=O)[C@H](CO)NC(=O)[C@H](C(C)C)NC1=O [Example 1130] ({CH2CO}-FYDWL[Bip]V[NMeA][Sar]ALVSCG-NH2; thioether N-14)	500
CC(C)C[C@@H]1NC(=O)[C@H](Cc2c[nH]c3ccccc23)NC(=O)[C@H](CC(=O)O)NC(=O)[C@H](Cc2ccc(O)cc2)NC(=O)[C@H](Cc2ccccc2)NC(=O)CSC[C@@H](C(=O)NC2(C(N)=O)CC2)NC(=O)[C@H](CO)NC(=O)[C@H](C(C)C)NC(=O)[C@H](CC(C)C)NC(=O)[C@H](CC(N)=O)NC(=O)CN(C)C(=O)[C@H](C)N(C)C(=O)[C@H](C(C)C)NC(=O)[C@H](Cc2ccc(-c3ccccc3)cc2)NC1=O [Example 1056] ({CH2CO}-FYDWL[Bip]V[NMeA][Sar]NLVSC[Ac3c]-NH2; thioether N-14)	130
